Experimental data reported in the OPERA property sets (Mansouri et al. 2018).

**Q.** With `Clc1ccc2c(c1)oc1c(Cl)c(Cl)cc(Cl)c12` as the molecule, how does the logP read?
**A.** 6.23

**Q.** With `Clc1cc(Cl)c2c(oc3c(Cl)cccc32)c1Cl` as the molecule, how does the logP read?
**A.** 6.31

**Q.** With `Clc1cc(Cl)c2oc3c(Cl)c(Cl)c(Cl)cc3c2c1` as the molecule, how does the logP read?
**A.** 6.59

**Q.** Which logP does the source give for `Clc1cc2oc3ccc(Cl)c(Cl)c3c2cc1Cl` here?
**A.** 6.23

**Q.** Which logP does the source give for `Clc1cc(Cl)c2c(c1)oc1cc(Cl)cc(Cl)c12` here?
**A.** 6.34

**Q.** With `Clc1cc(Cl)c2c(c1)oc1c(Cl)cc(Cl)cc12` as the molecule, how does the logP read?
**A.** 6.37

**Q.** For `Clc1cc2c(oc3c(Cl)c(Cl)c(Cl)c(Cl)c32)c(Cl)c1Cl`, which logP is on record?
**A.** 7.92

**Q.** Which logP does the source give for `Clc1cc(Cl)c2oc3c(Cl)c(Cl)cc(Cl)c3c2c1` here?
**A.** 6.24

**Q.** Which logP does the source give for `Clc1cc2oc3c(Cl)c(Cl)ccc3c2cc1Cl` here?
**A.** 6.31

**Q.** For `Clc1ccc2oc3c(Cl)c(Cl)c(Cl)c(Cl)c3c2c1`, which logP is on record?
**A.** 6.79

**Q.** For `Clc1c(Cl)c(Cl)c2c(oc3ccccc32)c1Cl`, which logP is on record?
**A.** 6.17

**Q.** Which logP does the source give for `Clc1cc2oc3cc(Cl)c(Cl)cc3c2cc1Cl` here?
**A.** 6.53

**Q.** With `Clc1cc(Cl)c2c(oc3ccc(Cl)c(Cl)c32)c1Cl` as the molecule, how does the logP read?
**A.** 6.51

**Q.** For `Clc1cc2oc3cc(Cl)c(Cl)c(Cl)c3c2cc1Cl`, which logP is on record?
**A.** 6.79

**Q.** Which logP does the source give for `Clc1cc(Cl)c2oc3c(Cl)c(Cl)ccc3c2c1` here?
**A.** 6.25

**Q.** Which logP does the source give for `Clc1cc2oc3c(Cl)c(Cl)c(Cl)cc3c2cc1Cl` here?
**A.** 6.92

**Q.** Which logP does the source give for `Clc1cc(Cl)c2oc3c(Cl)ccc(Cl)c3c2c1Cl` here?
**A.** 6.59

**Q.** Which logP does the source give for `Clc1cc2c(oc3c(Cl)cccc32)c(Cl)c1Cl` here?
**A.** 6.11

**Q.** For `Clc1cc(Cl)c2oc3cc(Cl)c(Cl)cc3c2c1`, which logP is on record?
**A.** 6.73
